Results reported in patent publication US20050138675A1, “Method for determining cardiotoxicity” (Pfizer Inc., priority 2003, published 2005).

Test system: cardiac ventricular tissue
Conditions: at least 2-fold relative to control
Description: Male Sprague-Dawley rats weighing between 175-220 grams were used for all studies. Animals were purchased from Charles River Laboratories (Wilmington, Mass.) and allowed to acclimate for one week prior to use. All animals were given food and water ad libitum, and housed under a 12-hour light/12-hour dark cycle. The animals were housed in conventional plastic bottom cages (2 animals/cage) with corncob bedding. All dosing with test compounds was a single acute injection by the intraperitoneal route, in normal saline, with a 20×¾″ disposable needle attached to a 1 cc disposable syringe. These animals were euthanized by a 150 mg/kg intraperitoneal injection of Nembutal prior to collection of heart tissue.
Dose range-finding studies were completed to determine a xenobiotic dose that would produce signs of cardiotoxicity such as elevated serum troponins, creatine kinase isoenzymes, or histo-pathological tissue changes, without causing overt general toxicity. Comprehensive literature reviews were also used to select doses. […] Six or twenty-four hours later, animals were euthanized with a lethal intraperitoneal dose of Nembutal solution. Biopsy punches were used to remove approximately […] of ventricular tissue for subsequent RNA isolation and gene expression analysis. Total RNA was isolated from the samples using a Qiagen RNAeasy protocol (Valencia, Calif.). In this procedure, RNA is captured on a solid phase column, then washed with a series of solutions to purify the sample. In the last step, RNA is eluted from the column with RNAse free water. RNA quality and quantity was then checked with an optical density reading at 260/280 wavelengths, and an aliquot of RNA was run on an RNA denaturing gel. High quality RNA should have an OD 260/280 ratio of 2, and the denaturing gel should show two distinct ribosomal RNA bands.
Synthesis of double stranded cDNA from the total RNA isolated was the first step, which involves the incorporation of a T7-(dT)24 primer into the sequence, with subsequent second strand synthesis which yields a double stranded template for the in vitro transcription (IVT) reaction. The resulting cDNA was run in an IVT reaction using an Enzo BioArray High Yield RNA transcript labeling kit (Enzo Life Sciences, Inc. Farmingdale, N.Y.), during which a biotin label was incorporated into the complementary RNA (cRNA) sequence. This step also amplified the product by generating approximately 40 transcripts per cDNA substrate. After the IVT reaction, cRNA was fragmented by metallic fragmentation, and a small portion of the sample was run on a 1% agarose gel in order to visualize the fragmentation pattern. The range should be between 35 to 200 bases. Four samples from each group showing the highest purity and quality results were pooled for hybridization onto one Genechip to greatly reduce experimental costs. Genes of interest that are found through the use of GeneChip technology, will then be verified using real time PCR techniques on each individual sample.
Next, the cRNA was hybridized to the RG U34A GeneChip oligonucleotide array (Affymetrix Inc, Santa Clara, Calif.). An aliquot of the fragmented cRNA was mixed with control components, injected into the array, and the filled array was allowed to incubate at 45° C. for 16 hours in an Affymetrix oven, which rotates the samples continuously during incubation. The next morning, the array was taken from the oven and the sample was removed and frozen at −80° C. for possible future use. That is, in the event of a defective chip, the hybridization solution can be re-used. The array chamber was then filled with a wash buffer, and placed in an automated fluid exchange system. The fluidics station controls the washing and staining of the probe array with the fluorescently labeled streptavidin stain solution and an antibody solution. After the staining process was complete the chips were scanned by an Agilent GeneArray laser scanner (Agilent, Palo Alto, Calif.).

[1] = 6 hour after single i.p. dose (DIG 20, DOX 30, ISO 70, LPS 10 mg/kg)
[2] = 24 hour after single i.p. dose (DIG 20, DOX 30, ISO 70, LPS 10 mg/kg)

Substance: lipopolysaccharide [LPS]
- AA957003 intercellular calcium-binding protein expression, up or down [1]: up
- AI176456 metallothionein expression, up or down [1]: up
- J02722 heme oxygenase (hsp32) expression, up or down [1]: up
- X01118 gamma-rANP expression, up or down [1]: down
- X89225 L-like neutral amino acid transport protein expression, up or down [1]: up
- AA892801 EST expression, up or down [2]: up
- AA899106 cyclin D2 expression, up or down [2]: down
- AB005743 fatty acid transporter expression, up or down [2]: up
- AF016296 neuropilin expression, up or down [2]: down
- AI008852 EST expression, up or down [2]: up
- AI170776 GRB2 expression, up or down [2]: up
- AI638989 EST expression, up or down [2]: down
- D85183 SHPS-1 expression, up or down [2]: up
- M57276 leukocyte antigen MRC-OX44 expression, up or down [2]: up
- U14950 synapse-associated protein 97 expression, up or down [2]: up
- U68272 interferon gamma receptor expression, up or down [2]: up
- X52140 integrin alpha-1 expression, up or down [2]: down
- X71127 complement protein C1q beta chain expression, up or down [2]: up
